The record followed here is patent publication US9873709B2 (priority 2013, dated 2018).

A word on the IC50: it is the concentration needed to halve the response being measured.

Molecules are shown by their SMILES.

The experiment relates to JAK1-dependent STAT6 phosphorylation downstream of IL-13 stimulation in TF-1 human erythroleukemia cells. Put plainly: cells. The following applies: TF-1, read-out: IL-13-pSTAT6 IC50.
`CC1CCN(C2CCN(C(=O)c3ccc(Nc4nc5c(C6=CCN(C(=O)CCC(F)(F)F)CC6)cccn5n4)cc3)CC2)CC1` [Example 2-208, 4,4,4-trifluoro-1-[4-[2-[4-[4-(4-methyl-1-piperidyl)piperidine-1-carbonyl]anilino]-[1,2,4]triazolo[1,5-a]pyridin-8-yl]-3,6-dihydro-2H-pyridin-1-yl]butan-1-one]: the IC50 amounted to 4.4 nM. Turning to `COCCN(C(=O)c1ccc(Nc2nc3c(C4=CCN(C(=O)CCC(F)(F)F)CC4)cccn3n2)cc1)C1CCN(C)CC1` [Example 2-209, N-(2-methoxyethyl)-N-(1-methyl-4-piperidyl)-4-[[8-[1-(4,4,4-trifluorobutanoyl)-3,6-dihydro-2H-pyridin-4-yl]-[1,2,4]triazolo[1,5-a]pyridin-2-yl]amino]benzamide], the IC50 was found to be 29.9 nM. For `CCN(CC)C1CCN(C(=O)c2ccc(Nc3nc4c(C5=CCN(C(=O)CCC(F)(F)F)CC5)cccn4n3)cc2)C1` (stereo not shown) [Example 2-211, 1-[4-[2-[4-[3-(diethylamino)pyrrolidine-1-carbonyl]anilino]-[1,2,4]triazolo[1,5-a]pyridin-8-yl]-3,6-dihydro-2H-pyridin-1-yl]-4,4,4-trifluoro-butan-1-one], the IC50 is 7.1 nM.

On to `CN(CCc1cccnc1)C(=O)c1ccc(Nc2nc3c(C4=CCN(C(=O)CCC(F)(F)F)CC4)cccn3n2)cc1` [Example 2-212, N-methyl-N-[2-(3-pyridyl)ethyl]-4-[[8-[1-(4,4,4-trifluorobutanoyl)-3,6-dihydro-2H-pyridin-4-yl]-[1,2,4]triazolo[1,5-a]pyridin-2-yl]amino]benzamide], for which the IC50 worked out at 8 nM. In the case of `CN1CCCCC1CNC(=O)c1ccc(Nc2nc3c(C4=CCN(C(=O)CCC(F)(F)F)CC4)cccn3n2)cc1` (stereo not shown) [Example 2-214, N-[(1-methyl-2-piperidyl)methyl]-4-[[8-[1-(4,4,4-trifluorobutanoyl)-3,6-dihydro-2H-pyridin-4-yl]-[1,2,4]triazolo[1,5-a]pyridin-2-yl]amino]benzamide], the IC50 was 5.5 nM. For `Cc1ccc(C2CCN(C(=O)c3ccc(Nc4nc5c(C6=CCN(C(=O)CCC(F)(F)F)CC6)cccn5n4)cc3)CC2)nc1` [Example 2-215, 4,4,4-trifluoro-1-[4-[2-[4-[4-(5-methyl-2-pyridyl)piperidine-1-carbonyl]anilino]-[1,2,4]triazolo[1,5-a]pyridin-8-yl]-3,6-dihydro-2H-pyridin-1-yl]butan-1-one] the value was 13.5 nM; for `Cc1cccc(CCNC(=O)c2ccc(Nc3nc4c(C5=CCN(C(=O)CCC(F)(F)F)CC5)cccn4n3)cc2)n1` [Example 2-216, N-[2-(6-methyl-2-pyridyl)ethyl]-4-[[8-[1-(4,4,4-trifluorobutanoyl)-3,6-dihydro-2H-pyridin-4-yl]-[1,2,4]triazolo[1,5-a]pyridin-2-yl]amino]benzamide], 7.4 nM. For `CN(C)c1cc(CC2CCN(C(=O)c3ccc(Nc4nc5c(C6=CCN(C(=O)CCC(F)(F)F)CC6)cccn5n4)cc3)C2)ncn1` (stereo not shown) [Example 2-217, 1-[4-[2-[4-[3-[[6-(dimethylamino)pyrimidin-4-yl]methyl]pyrrolidine-1-carbonyl]anilino]-[1,2,4]triazolo[1,5-a]pyridin-8-yl]-3,6-dihydro-2H-pyridin-1-yl]-4,4,4-trifluoro-butan-1-one], the IC50 came out at 9.5 nM. As to `Cc1ccc(CC2CCN(C(=O)c3ccc(Nc4nc5c(C6=CCN(C(=O)CCC(F)(F)F)CC6)cccn5n4)cc3)C2)nc1` (stereo not shown) [Example 2-218, 4,4,4-trifluoro-1-[4-[2-[4-[3-[(5-methyl-2-pyridyl)methyl]pyrrolidine-1-carbonyl]anilino]-[1,2,4]triazolo[1,5-a]pyridin-8-yl]-3,6-dihydro-2H-pyridin-1-yl]butan-1-one], the IC50 is 15.4 nM. For `O=C(NCCc1cccnc1)c1ccc(Nc2nc3c(C4=CCN(C(=O)CCC(F)(F)F)CC4)cccn3n2)cc1` [Example 2-220, N-[2-(3-pyridyl)ethyl]-4-[[8-[1-(4,4,4-trifluorobutanoyl)-3,6-dihydro-2H-pyridin-4-yl]-[1,2,4]triazolo[1,5-a]pyridin-2-yl]amino]benzamide] the value was 5.8 nM. For `CN1CCC(N(C)C(=O)c2ccc(Nc3nc4c(C5=CCN(C(=O)NCc6ccccc6)CC5)cccn4n3)cc2)CC1` [Example 2-222, N-benzyl-4-[2-[4-[methyl-(1-methyl-4-piperidyl)carbamoyl]anilino]-[1,2,4]triazolo[1,5-a]pyridin-8-yl]-3,6-dihydro-2H-pyridine-1-carboxamide] the value was 468 nM.

In the case of `CC1CC1C(=O)N1CC=C(c2cccn3nc(Nc4ccc(C(=O)N(C)C5CCN(C)CC5)cc4)nc23)CC1` (stereo not shown) [Example 2-223, N-methyl-4-[[8-[1-(2-methylcyclopropanecarbonyl)-3,6-dihydro-2H-pyridin-4-yl]-[1,2,4]triazolo[1,5-a]pyridin-2-yl]amino]-N-(1-methyl-4-piperidyl)benzamide], the IC50 was 17.3 nM.

Take `COC(=O)N1CC=C(c2cccn3nc(Nc4ccc(C(=O)N(C)C5CCN(C)CC5)cc4)nc23)CC1` [Example 2-224, methyl 4-[2-[4-[methyl-(1-methyl-4-piperidyl)carbamoyl]anilino]-[1,2,4]triazolo[1,5-a]pyridin-8-yl]-3,6-dihydro-2H-pyridine-1-carboxylate]: the IC50 is 204 nM. For `CN1CCC(N(C)C(=O)c2ccc(Nc3nc4c(C5=CCN(C(=O)OCC(F)F)CC5)cccn4n3)cc2)CC1` [Example 2-225, 2,2-difluoroethyl 4-[2-[4-[methyl-(1-methyl-4-piperidyl)carbamoyl]anilino]-[1,2,4]triazolo[1,5-a]pyridin-8-yl]-3,6-dihydro-2H-pyridine-1-carboxylate], the IC50 came out at 11.3 nM.

On to `CCOC(=O)N1CC=C(c2cccn3nc(Nc4ccc(C(=O)NCCNC)cc4)nc23)CC1` [Example 2-230, ethyl 4-[2-[4-[2-(methylamino)ethylcarbamoyl]anilino]-[1,2,4]triazolo[1,5-a]pyridin-8-yl]-3,6-dihydro-2H-pyridine-1-carboxylate], for which the IC50 turned out to be 157 nM.

With `CCOC(=O)N1CC=C(c2cccn3nc(Nc4ccc(C(=O)NC5CCNC5)cc4)nc23)CC1` (stereo not shown) [Example 2-231, ethyl 4-[2-[4-(pyrrolidin-3-ylcarbamoyl)anilino]-[1,2,4]triazolo[1,5-a]pyridin-8-yl]-3,6-dihydro-2H-pyridine-1-carboxylate], the IC50 is 268 nM. With `CCOC(=O)N1CC=C(c2cccn3nc(Nc4ccc(C(=O)N5CCCCC5c5cccnc5)cc4)nc23)CC1` (stereo not shown) [Example 2-232, ethyl 4-[2-[4-[2-(3-pyridyl)piperidine-1-carbonyl]anilino]-[1,2,4]triazolo[1,5-a]pyridin-8-yl]-3,6-dihydro-2H-pyridine-1-carboxylate], the IC50 worked out at 288 nM. The same measure for `CCOC(=O)N1CC=C(c2cccn3nc(Nc4ccc(C(=O)N5CCCCC5Cc5ccccn5)cc4)nc23)CC1` (stereo not shown) [Example 2-235, ethyl 4-[2-[4-[2-(2-pyridylmethyl)piperidine-1-carbonyl]anilino]-[1,2,4]triazolo[1,5-a]pyridin-8-yl]-3,6-dihydro-2H-pyridine-1-carboxylate]: 23.1 nM; for `CCOC(=O)N1CC=C(c2cccn3nc(Nc4ccc(C(=O)N5CCCC(O)(CN6CCCC6)CC5)cc4)nc23)CC1` (stereo not shown) [Example 2-241, ethyl 4-[2-[4-[4-hydroxy-4-(pyrrolidin-1-ylmethyl)azepane-1-carbonyl]anilino]-[1,2,4]triazolo[1,5-a]pyridin-8-yl]-3,6-dihydro-2H-pyridine-1-carboxylate]: 63.7 nM.
